Data: ChEMBL document CHEMBL1150673, “Briarellins J-P and polyanthellin A: new eunicellin-based diterpenes from the gorgonian coral Briareum polyanthes and their antimalarial activity” (J Nat Prod, 2003)
Converted amounts (≈) assume the structure as drawn. The source made the active and inactive calls. No cut-off for these calls is given here.

What was measured:
Plasmodium falciparum = assay: Antimalarial activity as Plasmodium falciparum DNA by PicoGreen microfluorimetry; assay type: functional, organism-based
[1] = system: M-phase inducer phosphatase (Cdc25); assay: Inhibition of Cdc25
[2] = system: Mycobacterium tuberculosis; assay: Antitubercular activity against Mycobacterium tuberculosis H37Rv at 6.25 ug/ml; assay type: functional, organism-based
[3] = target: Cyclin-dependent kinase 1/cyclin B1 (Homo sapiens) (UniProt P06493+P14635); assay: Inhibition of Cdc2/cyclin B; assay type: protein-complex assay
Chain of Cyclin-dependent kinase 1/cyclin B1 (Homo sapiens) (P06493 whole entry, looked up): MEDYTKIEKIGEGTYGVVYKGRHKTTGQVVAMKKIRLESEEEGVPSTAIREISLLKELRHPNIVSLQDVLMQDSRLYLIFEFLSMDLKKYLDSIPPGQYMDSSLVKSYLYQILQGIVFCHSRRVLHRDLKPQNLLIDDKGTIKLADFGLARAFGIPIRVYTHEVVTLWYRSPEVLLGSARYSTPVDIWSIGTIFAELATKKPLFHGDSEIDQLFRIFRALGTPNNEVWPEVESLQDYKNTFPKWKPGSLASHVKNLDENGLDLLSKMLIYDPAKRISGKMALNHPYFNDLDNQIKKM
Chain of Cyclin-dependent kinase 1/cyclin B1 (Homo sapiens) (P14635 whole entry, looked up): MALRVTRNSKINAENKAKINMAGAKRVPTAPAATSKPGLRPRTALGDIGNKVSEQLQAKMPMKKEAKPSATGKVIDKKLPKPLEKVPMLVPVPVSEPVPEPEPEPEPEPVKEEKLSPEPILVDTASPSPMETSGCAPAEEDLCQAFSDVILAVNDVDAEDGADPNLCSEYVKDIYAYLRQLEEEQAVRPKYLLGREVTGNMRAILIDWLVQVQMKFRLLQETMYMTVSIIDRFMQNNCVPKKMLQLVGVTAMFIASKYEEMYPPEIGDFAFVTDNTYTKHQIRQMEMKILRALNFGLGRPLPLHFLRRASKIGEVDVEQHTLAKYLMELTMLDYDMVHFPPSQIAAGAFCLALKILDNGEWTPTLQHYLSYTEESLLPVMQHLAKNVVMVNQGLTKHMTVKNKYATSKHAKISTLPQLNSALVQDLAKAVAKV

SF-268 = assay: Cytotoxicity against human SF268 cells at 100 uM; assay type: functional, cell-based
NCI-H460 = assay: Cytotoxicity against human NCI-H460 cells at 100 uM; assay type: functional, cell-based
MCF = assay: Cytotoxicity against human MCF cells at 100 uM; assay type: functional, cell-based

Row | Compound | IC50 (Plasmodium falciparum) | Activity [2] | other results
1 | CC(C)[C@@H]1CC[C@](C)(O)[C@H]2C3C[C@@]4(C)CCC[C@](C)(O4)C(O3)[C@@H]12 | 16 µg/mL (≈ 49.6 µM) |  | 
2 | CO[C@@H]1CC[C@]2(C)OC(=O)[C@H](C)C3CC[C@@](C)(OC(C)=O)[C@H]4C(C[C@@]1(C)O)OC2[C@@H]34 (some centres not stated) |  | inactive | Activity [1]: inactive; Activity [3]: inactive
3 | C=C1CC2OC3[C@H]4C(CC[C@@](C)(OC(=O)CCC)[C@@H]24)[C@@H](C)C(=O)O[C@@]3(C)CC[C@H]1OO (some centres not stated) [BRIARELLIN D HYDROPEROXIDE] | 9 µg/mL (≈ 20.6 µM) |  | 
4 | C=C1CC2OC3[C@H]4C(CC[C@@](C)(OC(=O)CCC)[C@@H]24)[C@@H](C)C(=O)O[C@@]3(C)CC[C@H]1O (some centres not stated) [BRIARELLIN D] | 13 µg/mL (≈ 30.9 µM) | inactive | Activity (SF-268): inactive; Activity [1]: inactive; Activity (NCI-H460): inactive; Activity [3]: inactive; Activity (MCF): inactive
5 | CC(=O)O[C@]1(C)CCC2[C@@H]3C4OC(C/C(C)=C\CC[C@]4(C)OC(=O)[C@@H]2C)[C@@H]31 (some centres not stated) [BRIARELLIN J] | > 50 µg/mL |  | 
6 | C=C1CC2OC3[C@H]4C(CC[C@@](C)(OC(C)=O)[C@@H]24)[C@@H](C)C(=O)O[C@@]3(C)CC[C@H]1OO (some centres not stated) [BRIARELLIN K HYDROPEROXIDE] | 9 µg/mL (≈ 22 µM) |  | 
7 | C=C1CC2OC3[C@H]4C(CC[C@@](C)(OC(C)=O)[C@@H]24)[C@@H](C)C(=O)O[C@@]3(C)CC[C@H]1O (some centres not stated) [BRIARELLIN K] | 15 µg/mL (≈ 38.2 µM) | inactive | Activity (SF-268): inactive; Activity [1]: inactive; Activity (NCI-H460): inactive; Activity [3]: inactive; Activity (MCF): inactive
8 | C=C1CC2OC3[C@H]4C(CC[C@@](C)(OC(=O)CCC)[C@@H]24)[C@@H](C)C(=O)O[C@@]3(C)CC[C@H]1OC(C)=O (some centres not stated) [BRIARELLIN L] | 8 µg/mL (≈ 17.3 µM) |  | 
9 | CC(=O)O[C@]1(C)CCC2[C@@H]3C4OC(C[C@@](C)(O)[C@H](O)CC[C@]4(C)OC(=O)[C@@H]2C)[C@@H]31 (some centres not stated) [BRIARELLIN M] | 22 µg/mL (≈ 53.6 µM) |  | 
10 | CCCC(=O)O[C@]1(C)CCC2[C@@H]3C4OC(C[C@@](C)(O)[C@H](O)CC[C@]4(C)OC(=O)[C@@H]2C)[C@@H]31 (some centres not stated) [BRIARELLIN O] | 24 µg/mL (≈ 54.7 µM) |  | 
11 | CCCC(=O)O[C@]1(C)CCC2[C@@H]3C4OC(C[C@@](C)(O)[C@H](OC)CC[C@]4(C)OC(=O)[C@@H]2C)[C@@H]31 (some centres not stated) [BRIARELLIN P] | 14 µg/mL (≈ 30.9 µM) |  | 
12 | CC(=O)O[C@@]1(C)CC[C@@H](C(C)C)[C@@H]2C3OC(C[C@@]4(C)CCC[C@]3(C)O4)[C@@H]21 [POLYANTHELLIN A] | 16 µg/mL (≈ 43.9 µM) | inactive | 
